Like-named read-outs stand apart in the source and are kept apart here.
Columns and labels:
[1] = system: FaDu human head and neck cancer xenograft; assay: Tumor growth and response to therapy in FaDu xenograft; assay type: in vivo, nude mice (nu/nu); conditions: for mice euthanized for tumor volume in excess of 1500 mm^3: vehicle groups 43.3%; for survival at Day 29: vehicle groups 26.7%; for mice euthanized for tumor ulceration: vehicle groups 30%
Procedure: Ninety (90) male nude mice (nu/nu) were divided into nine (9) groups of ten […]) mice per group. To ensure that a sufficient number of tumor-bearing animals were available for this study, a total of 100 mice were inoculated s.c. in the flank with 1×10^6 FaDu cells. FaDu (HTB-43) human head and neck cancer cells were obtained from ATCC. These cells were grown in EMEM medium supplemented with 10% Fetal Calf Serum (FCS), 1% penicillin and streptomycin, and 2 mM L-Glutamine. […] The flask was incubated at 37° C. until cells detached. Cells were then sub-cultured at a ratio of 1:3. […] Tumors were measured once every two days with micro-calipers, and tumor volume was calculated as (length×width×width)/2. Where animals were euthanized for tumor volume exceeding the maximum permissible by IACUC rules (1500 mm^3) or tumor ulceration, the last measurement was carried forward in calculations of mean tumor volume.
All animals were weighed every day and their survival recorded, to assess possible differences in animal weight among treatment groups as an indication of possible toxicity resulting from the treatments. […] Any animals whose tumor grew to over 1500 mm^3 were also euthanized.
Further analysis of the tumor volume data was performed by calculating the mean area under the curve (AUC) for the tumor volume for each animal and comparing the groups using an ANOVA on ranks test. Due to the impact of animals euthanized for tumor ulceration or volume in excess of 1500 mm^3, this analysis was performed on data to Day 15 as well as on the full data set to Day 29.

[2] = system: radiation-induced oral mucositis, left buccal cheek pouch; assay type: in vivo; conditions: for mean daily mucositis scores vs untreated control (Mann-Whitney Rank-sum), efficacy: topical three times per day
Description: In the irradiated hamster cheek pouch model of oral mucositis, the hamster cheek pouch is everted and irradiated to produce a localized mucositis. The progression and resolution of mucositis in the hamster model is very similar to that observed in the human condition and the model has been validated clinically with respect to dosing schedules of therapeutic agents (Murphy et al., Clin. Cancer Res., 2008, 14, 4292-4297; Alvarez et al., Clin. Cancer Res., 2003, 9, 3454-3461; and Schuster et al., J. Clin. Oncol., 2006, 24, 6537). Briefly, on day 0, all animals were given an acute radiation dose directed to their left buccal cheek pouch. Test articles were applied topically to the left pouch three times per day from day 0 to day 20 and mucositis was evaluated clinically starting on day 6, and continued on alternate days until […]. Study endpoints were mucositis score, weight change and survival. Mucositis was scored visually by comparison to a validated photographic scale. The scale ranges from 0 for normal, to 5 for severe ulceration. The clinical mucositis score of 3 in hamsters indicates the presence of an ulcer. In terms of the syndrome, it is believed that the dose-limiting chemotherapeutic- or radiation-induced pain is associated with frank ulceration; therefore a compound that prevents ulceration in the model might have utility in the clinical setting.
To evaluate mucositis severity, animals were anesthetized with an inhalation anesthetic, and the left cheek pouch everted. Mucositis was scored visually by comparison to a validated photographic scale. The scale ranges from 0 for normal, to 5 for severe ulceration. In descriptive terms, this scale is defined as follows: […]
A score of 1-2 is considered to represent a mild stage of injury, whereas a score of 3-5 is considered to indicate moderate to severe mucositis. In terms of the syndrome, it is believed that the dose-limiting chemotherapeutic- or radiation-induced pain is associated with frank ulceration; therefore a compound that prevents ulceration in the model might have utility in the clinical setting. In the hamster model, a clinical mucositis score of 3 indicates the presence of an ulcer and the duration of scores of 3 or greater is used as a primary measurement of efficacy in mucositis treatment. Ulceration is the point in the development of mucositis where the physical integrity of the oral mucosa is breached. In the clinic, a patient presenting with severe oral ulcerations may require hospitalization for analgesic, narcotic and/or antibiotic therapies or fluid support.
On day 0, all animals were given an acute radiation dose directed to their left buccal cheek pouch. This was accomplished by anesthetizing the animals and everting the left buccal pouch, while protecting the rest of the animals with a lead shield. Test agents were applied topically to the left buccal pouch three times per day from day 0 to day 20. Mucositis was evaluated clinically starting on day 6, and continued on alternate days until day 28. Study endpoints were mucositis score, weight change and survival. Mucositis was scored visually by comparison to a validated photographic scale. No treatment-related deaths were recorded throughout the study. The mean daily percent weight gains were similar in all groups and there were no apparent toxicities in any of the test agent treatment groups. Differences between the ulcerative severity in controls and the treated groups were assessed in two ways. First, mean daily mucositis scores for each group at each time-point were compared with the untreated control group using the Mann-Whitney Rank-sum analysis. […] At 0.3 mg/ml, efficacy was partial early in the treatment period.
Alternately, ulcerative severity differences between control and treatment groups were assessed by the comparison of the number of days with an ulcer (i.e., a score of 3 or higher) using a chi-squared (χ2) test.

Structure (SMILES): N=C(N)NCCCCC(=O)Nc1cc(C(F)(F)F)cc(NC(=O)c2cc(C(=O)Nc3cc(C(F)(F)F)cc(NC(=O)CCCCNC(=N)N)c3OC3CCNC3)ncn2)c1OC1CCNC1 (centres unmarked) [Compound X]
- mean tumor volume ([1]; 0.06 mg/kg, Day 1): 102 mm^3
- mean tumor volume ([1]; 0.06 mg/kg, Day 15): 904 mm^3
- mean tumor volume ([1]; 0.06 mg/kg, Day 27 when final animal in group was euthanized): 2234 mm^3
- mean tumor volume ([1]; 0.3 mg/kg, Day 1): 96 mm^3
- mean tumor volume ([1]; 0.3 mg/kg, Day 15): 869 mm^3
- mean tumor volume ([1]; 0.3 mg/kg, end of the study): 1002 mm^3
- mean tumor volume ([1]; cisplatin plus Compound X 0.06 mg/kg, Day 1): 100 mm^3
- mean tumor volume ([1]; cisplatin plus Compound X 0.06 mg/kg, Day 15): 518 mm^3
- mean tumor volume ([1]; cisplatin plus Compound X 0.06 mg/kg, end of the study): 338 mm^3
- mean tumor volume ([1]; cisplatin plus Compound X 0.3 mg/kg, Day 1): 104 mm^3
- mean tumor volume ([1]; cisplatin plus Compound X 0.3 mg/kg, Day 15): 564 mm^3
- mean tumor volume ([1]; cisplatin plus Compound X 0.3 mg/kg, end of the study): 510 mm^3
- p, tumor volume AUC to Day 15 vs vehicle control group (ANOVA on ranks) ([1]; cisplatin plus Compound X at 0.06 mg/kg): 0.001
- p, tumor volume AUC to Day 15 vs vehicle control group (ANOVA on ranks) ([1]; cisplatin plus Compound X at 0.3 mg/kg): 0.002
- mice euthanized for tumor volume in excess of 1500 mm^3 ([1]; groups treated with 0.06 mg/kg IP QD Days 0-28 (alone, with radiation or cisplatin)): 46.7%
- survival at Day 29 ([1]; groups treated with 0.06 mg/kg): 20%
- mice euthanized for tumor ulceration ([1]; groups treated with 0.06 mg/kg): 33.3%
- mice euthanized for tumor volume in excess of 1500 mm^3 ([1]; groups treated with 0.3 mg/kg IP QD Days 0-28 (alone, with radiation or cisplatin)): 40%
- survival at Day 29 ([1]; groups treated with 0.3 mg/kg): 36.7%
- mice euthanized for tumor ulceration ([1]; groups treated with 0.3 mg/kg): 23.3%
- mean tumor volume ([1]; radiation plus 0.06 mg/kg, Day 1): 96 mm^3
- mean tumor volume ([1]; radiation plus 0.06 mg/kg, Day 15): 596 mm^3
- mean tumor volume ([1]; radiation plus 0.06 mg/kg, end of the study): 1027 mm^3
- mean tumor volume ([1]; radiation plus 0.3 mg/kg, Day 1): 108 mm^3
- mean tumor volume ([1]; radiation plus 0.3 mg/kg, Day 15): 616 mm^3
- mean tumor volume ([1]; radiation plus 0.3 mg/kg, end of the study): 1376 mm^3
- p, tumor volume AUC to Day 15 vs vehicle control group (ANOVA on ranks) ([1]; radiation plus Compound X at 0.3 mg/kg): 0.017
- mean daily mucositis scores vs untreated control (Mann-Whitney Rank-sum), efficacy ([2]; 0.3 mg/ml, early in the treatment period): partial
- mean daily mucositis scores vs untreated control (Mann-Whitney Rank-sum), efficacy ([2]; 1, 3 and 10 mg/ml groups, by Day 12 through Day 28): robust efficacy
- mucositis scores, number of days with an ulcer (score of 3 or higher), chi-squared test vs control ([2]; 1, 3 and 10 mg/ml/dose, p<0.001): statistically significant improvements
- treatment days with a clinical score ≥3 ([2]; 1, 3 and 10 mg/ml/dose, vehicle control 42.7%): < 5%
- % reduction of animal days with OM scores ≥ 3 ([2]; Acute Radiation): 90.6%-95.3%
- impact of Kleptose on the response (mucositis scores) ([2]; Kleptose in the vehicle or with 1 mg/kg Compound X): did not significantly impact the response
- daily mean mucositis scores and number of days animals exhibited ulceration ([2]; acute radiation model, oral rinse 3 times daily, 28 day treatment regimen): significantly reduced
- adverse findings in weight gain, general behavior in the home cage, or clinical signs ([2]; hamster, in vivo): no adverse findings

From US10206894B2, “Compounds for use in treatment of mucositis” (priority 2011, dated 2019)
